# Measured values taken from patent publication US20240024395A1 (priority 2020, published 2024).
# Columns and labels:
# [1] = tested on: mycotoxicosis due to DON ingestion; parameters: Stomach ulcer: key to the marks not given beside the values; details: pig, in vivo
# [2] = pig, in vivo, 0.05 mg/kg
smiles,measurement,setting,value
"CC1=C[C@H]2O[C@@H]3[C@H](O)C[C@](C)([C@@]2(CO)[C@H](O)C1=O)[C@]31CO1 [DON, deoxynivalenol]",ADG1 average daily weight gain over the first 15 days of the challenge,[1],0.54
same,ADG average daily weight gain over the last 13 days of the challenge,[1],0.81
same,Kidneys,[1],Pail
same,Liver colour,[1],Pail
same,Stomach inflammation,[1],++/−
same,Stomach ulcer,[1],++
same,"villus/crypt ratio, average",[1],1.09
same,weight begin,"[1]; po, 5.4 mg/kg",12.69
same,weight end,"[1]; po, 5.4 mg/kg",31.75
same,AUC0→∞ of unbound DON,[2],187 ± 33
same,Cmax of unbound DON,[2],30.8 ± 2.5
